pIC50: −log10 of the molar value. Structures can show the parent of a compound that is named as a salt.
biological target: cloned human NR1/NR2B ion channels (Homo sapiens (Human), UniProt Q05586+Q13224); test: HNR2BC: effects of test articles on cloned human NR1/NR2B ion channels expressed in mammalian cells (FLIPR calcium flux); type: cell-based; conditions: cloned human NR1/NR2B, Table 5
In short: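 Compounds were added to dye-loaded cells for 5 min with fluorescence monitored for agonism, followed by co-agonists (glutamate ~EC80, glycine 10 μM saturating) for 5 min. Cells stably expressed inducible human NR1/NR2B, and the buffer was pH 7.4. The FLIPR Ca2+ flux signal was normalized against control wells.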

Chain of cloned human NR1/NR2B ion channels (Q13224 27-1484, other chains not shown): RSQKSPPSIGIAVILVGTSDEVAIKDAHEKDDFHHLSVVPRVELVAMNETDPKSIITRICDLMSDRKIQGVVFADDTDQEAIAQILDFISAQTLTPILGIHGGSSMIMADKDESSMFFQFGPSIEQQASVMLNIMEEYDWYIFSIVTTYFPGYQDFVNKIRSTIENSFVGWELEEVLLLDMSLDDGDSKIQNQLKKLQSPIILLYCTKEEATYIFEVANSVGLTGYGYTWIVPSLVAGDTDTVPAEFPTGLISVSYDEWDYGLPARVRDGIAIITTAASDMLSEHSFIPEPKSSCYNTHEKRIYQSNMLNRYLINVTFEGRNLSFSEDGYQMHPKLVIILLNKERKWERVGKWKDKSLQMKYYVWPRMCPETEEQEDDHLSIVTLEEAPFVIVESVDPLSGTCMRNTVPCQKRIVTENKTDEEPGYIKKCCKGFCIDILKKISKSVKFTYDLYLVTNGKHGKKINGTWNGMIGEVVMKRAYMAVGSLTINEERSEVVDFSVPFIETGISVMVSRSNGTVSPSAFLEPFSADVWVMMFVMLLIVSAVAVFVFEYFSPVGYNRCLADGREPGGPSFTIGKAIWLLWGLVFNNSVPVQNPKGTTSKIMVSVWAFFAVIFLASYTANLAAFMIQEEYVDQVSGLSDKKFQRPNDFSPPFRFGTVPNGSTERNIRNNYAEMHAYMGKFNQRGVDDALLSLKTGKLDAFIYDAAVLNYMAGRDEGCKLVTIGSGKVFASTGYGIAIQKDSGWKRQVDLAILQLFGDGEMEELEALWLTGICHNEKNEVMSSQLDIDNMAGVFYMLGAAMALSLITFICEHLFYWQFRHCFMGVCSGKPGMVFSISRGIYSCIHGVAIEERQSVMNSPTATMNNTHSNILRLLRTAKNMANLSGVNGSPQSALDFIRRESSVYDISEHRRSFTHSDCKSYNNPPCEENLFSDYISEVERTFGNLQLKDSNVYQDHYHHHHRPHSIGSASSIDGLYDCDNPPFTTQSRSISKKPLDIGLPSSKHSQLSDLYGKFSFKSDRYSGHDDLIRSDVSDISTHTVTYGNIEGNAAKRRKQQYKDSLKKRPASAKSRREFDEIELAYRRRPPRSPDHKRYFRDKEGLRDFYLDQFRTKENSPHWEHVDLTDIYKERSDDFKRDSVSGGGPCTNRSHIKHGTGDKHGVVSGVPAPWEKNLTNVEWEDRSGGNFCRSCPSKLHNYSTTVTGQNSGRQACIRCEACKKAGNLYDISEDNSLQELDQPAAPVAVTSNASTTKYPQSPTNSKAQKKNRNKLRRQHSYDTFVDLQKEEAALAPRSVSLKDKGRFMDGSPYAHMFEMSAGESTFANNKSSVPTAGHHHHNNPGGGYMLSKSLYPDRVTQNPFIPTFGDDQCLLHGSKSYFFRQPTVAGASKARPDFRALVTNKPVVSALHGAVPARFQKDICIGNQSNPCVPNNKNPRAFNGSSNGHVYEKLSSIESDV

Going from O=C(Cn1ccc2ncc(-c3cc(Cl)cs3)cc21)N1CCCC1 [Example 288, 2-[6-(4-Chloro-2-thienyl)pyrrolo[3,2-b]pyridin-1-yl]-1-pyrrolidin-1-yl-ethanone] to O=C(Cn1ccc2ncc(-c3ccc(F)cc3)cc21)N1CC[C@H](F)C1 [Example 294, 2-[6-(4-Fluorophenyl)pyrrolo[3,2-b]pyridin-1-yl]-1-[(3S)-3-fluoropyrrolidin-1-yl]ethanone trifluoroacetate salt], the pIC50 falls from 7.70 to 6.50 (1.20 log units). The first is the more potent here.

Going from COC1CN(C(=O)Cn2ccc3ncc(-c4ccc(F)c(C)c4)cc32)C1 [Example 290, 2-[6-(4-Fluoro-3-methyl-phenyl)pyrrolo[3,2-b]pyridin-1-yl]-1-(3-methoxyazetidin-1-yl)ethanone] to CCC(=O)Cn1ccc2ncc(-c3ccc(F)c(C)c3)cc21 [Example 295, 1-[6-(4-Fluoro-3-methyl-phenyl)pyrrolo[3,2-b]pyridin-1-yl]butan-2-one trifluoroacetate salt], the pIC50 rises from 6.20 to 6.50 (0.30 log units).

First: COCCn1ccc2ncc(-c3ccc(F)c(C)c3)cc21 [Example 291, 6-(4-Fluoro-3-methyl-phenyl)-1-(2-methoxyethyl)pyrrolo[3,2-b]pyridine trifluoroacetate salt]
Second: CCN(C)C(=O)Cn1ccc2ncc(-c3ccc(F)c(C)c3)cc21 [Example 296, N-Ethyl-2-[6-(4-fluoro-3-methyl-phenyl)pyrrolo[3,2-b]pyridin-1-yl]-N-methyl-acetamide]
The pIC50 of the first is 0.50 log units lower: 7.10 for the first, 7.60 for the second. The second is the more potent here.

Compared with O=C(Cn1ccc2ncc(-c3cccc(F)c3)cc21)C1CCC1 [Example 292, 1-Cyclobutyl-2-[6-(3-fluorophenyl)pyrrolo[3,2-b]pyridin-1-yl]ethanone], Cc1cccc(-c2cnc3c(Cl)cn(CC(=O)C4CC4)c3c2)c1 [Example 299, 2-[3-Chloro-6-(m-tolyl)pyrrolo[3,2-b]pyridin-1-yl]-1-cyclopropyl-ethanone] is 1.40 log units higher in pIC50: 5.90 for the first, 7.30 for the second. The second is the more potent here.

First: CCN(CC)C(=O)Cn1ccc2ncc(-c3ccc(F)c(C)c3)cc21 [Example 297, N,N-Diethyl-2-[6-(4-fluoro-3-methyl-phenyl)pyrrolo[3,2-b]pyridin-1-yl]acetamide]
Second: Cc1cc(-c2cnc3c(F)cn(CC(=O)N4CCOCC4)c3c2)ccc1F [Example 304, 2-[3-Fluoro-6-(4-fluoro-3-methyl-phenyl)pyrrolo[3,2-b]pyridin-1-yl]-1-morpholino-ethanone]
The pIC50 of the first is 0.60 log units higher: 7.40 for the first, 6.80 for the second.

Compared with O=C(Cn1cc(Cl)c2ncc(-c3cccc(C(F)(F)F)c3)cc21)N1CCC1 [Example 298, 1-(Azetidin-1-yl)-2-[3-chloro-6-[3-(trifluoromethyl)phenyl]pyrrolo[3,2-b]pyridin-1-yl]ethanone], O=C(Cn1cc(Cl)c2ncc(-c3cc(F)c(F)c(F)c3)cc21)N1CCC1 [Example 301, 1-(Azetidin-1-yl)-2-[3-chloro-6-(3,4,5-trifluorophenyl)pyrrolo[3,2-b]pyridin-1-yl]ethanone] is 1.40 log units higher in pIC50: 6.30 for the first, 7.70 for the second.

First: O=C(Cn1cc(Cl)c2ncc(-c3ccccc3)cc21)C1CC1 [Example 300, 2-(3-Chloro-6-phenyl-pyrrolo[3,2-b]pyridin-1-yl)-1-cyclopropyl-ethanone]
Second: Cc1cc(C)cc(-c2cnc3c(Cl)cn(CC(=O)N4CCC4)c3c2)c1 [Example 303, 1-(Azetidin-1-yl)-2-[3-chloro-6-(3,5-dimethylphenyl)pyrrolo[3,2-b]pyridin-1-yl]ethanone]
The pIC50 of the first is 0.30 log units higher: 7.70 for the first, 7.40 for the second. The first is the more potent here.

Compared with O=C(Cn1cc(F)c2ncc(-c3ccc(F)cc3)cc21)N1CCC1 [Example 302, 1-(Azetidin-1-yl)-2-[3-fluoro-6-(4-fluorophenyl)pyrrolo[3,2-b]pyridin-1-yl]ethanone], O=C(Cn1cc(F)c2ncc(-c3ccc(F)cc3)cc21)N1CCOCC1 [Example 305, 2-[3-Fluoro-6-(4-fluorophenyl)pyrrolo[3,2-b]pyridin-1-yl]-1-morpholino-ethanone] is 0.40 log units lower in pIC50: 7.50 for the first, 7.10 for the second.

Source: patent publication US10377753B2, “Substituted 4-azaindoles and their use as GluN2B receptor modulators” (Janssen Pharmaceutica NV, priority 2015, dated 2019)
